Key:
[1] = system: primary human T-cells; assay: T-cell proliferation assay (CellTiter-Glo); assay type: cell-based; conditions: CD3 condition; for EC50: Homo sapiens, T-cell, 120 h, proliferation after 5 days, CellTiter-Glo, read-out: Tcell Proliferation CD3 EC50; for Emax proliferation (% activation): 5 days, 20 μM reference compound A1 = 100%
Procedure: For coating of plates, PBS++ only or PBS++ with CD3 antibody (concentration depending on donor and determined by CD3 titrations) is added 100 μl/well to Poly-D Lysine coated 96-well plates. Plates are sealed and incubated at room temperature for 3 hours on a table-top rocking platform. After incubation, plates are washed once with PBS−− and filled with 40 μl/well culture medium only. Compounds are then added (see next section) to medium only plates. After 3 hours of culturing the T-cells, cells are filtered through a cell strainer (Miltenyi Biotech, #130-041-407), counted again and concentration is adjusted to 1.25 Mio/ml.
Cells are then seeded 80 μl/well to the 40 μl/well including dispensed compounds according to plate layout. By adding cells, compounds are further diluted 1:3, and resulting in 100 k cells/120 μl/well. After 48 hours 40 μl of supernatant is collected carefully from the top while not disturbing the cells. Cells are assessed for proliferation 5 days later by measuring […] using CellTiterGlo (Promega).
Compounds were added in a 5 or 6 pt dose response with the Tecan D300e Digital Dispenser, all conditions 3 times more concentrated than the end-concentration, since cells are added afterwards (80 μl cells to 40 μl prepared medium with treatment). […] The positive control was the reference compound A1 that was added in a dose response as well, additionally to 3 wells of only 20 μM representing the positive stimulator control. All wells were normalized with DMSO to a final concentration of 0.6% (0.2% end-concentration).
After 5 days, for detection of ATP which is directly proportional to the number of cells present per well, the CellTiter-Glo® 2.0 Reagent is used. After visual control for toxicity or precipitations of the tested compounds, the plates are equilibrated to room temperature for 45 minutes. CellTiter-Glo® 2.0 Reagent is equilibrated to room temperature as well. After equilibration, an equal amount of CellTiter-Glo reagent is added to the cells (80 μl/well) with an electronic multichannel pipette. Plates are placed on a rocking platform for 15 minutes at room temperature. After incubation, the bottom of the plates is sealed with backing tape. Luminescence is measured with PHERAstar FSX (interval time 0.5 sec, gain 3000, focal height 15 mm) and exported as CSV file for analysis in Genedata screener.
Calculations and Data Reporting CD3 and PBS plates were analysed separately in Genedata Screener using Roche Normalization PCT_POS_CTRL with DMSO set as Neutral Control and 20 μM of the reference compound A1 set as Stimulator Control/100%.
For CD3 conditions EC50 and Emax of the fitted sigmoidal curve were reported. If no curve could be fitted, the EC50 was reported as blank field and the Emax was based on individual data points. […] Compounds which activate unstimulated cells (see IL2 measurements) or compounds which negatively affected viability were flagged.

[2] = system: primary human T-cells; assay: IL2 secretion measurements in CD3-stimulated T-cells; assay type: cell-based; conditions: CD3 condition; for Emax IL2 (% activation): 24 hours, 20 μM reference compound A1 = 100%; for EC50: Homo sapiens, T-cell, IL2 secretion after 24 hours, read-out: Tcell IL2 CD3 EC50
Procedure: As readouts for T-cell activation, 1L2 secretion after 24 hours and proliferation after 5 days was measured. Increases in 1L2 secretion and proliferation upon compound treatment were assessed as the % of the maximum of reference compound A1. WO 2016/139181 discloses reference compound A1 as example 70. As a counter screen and to make sure that no unwanted TCR-independent activation was triggered, PBS conditions were run for all compounds.
Expanded primary human T-cells were thawed and cultured in RPMI 1640 (Gibco, #61870-010)+5% human serum (HS, Sigma, #H3667)+1 mM Sodium Pyruvate (Gibco, #11360-039)+50 μM 2-mercaptoethanol (Gibco, #31350-010) and 1× Pen-Strep (Life Technologies, #15140122) medium at density of 2 Mio/ml for 3 hours in 5% CO2, 37° C. and 95% humidity. For coating of plates, […] or PBS++ with CD3 antibody (concentration depending on donor and determined by CD3 titrations) was added 100 μl/well to Poly-D Lysine coated 96-well plates. Plates were sealed and incubated at room temperature for 3 hours on a table-top rocking platform. After incubation, plates were washed once with PBS−− and filled with 40 μl/well culture medium only. Compounds were then added (see next section) to medium only plates. After 3 hours of culturing the T-cells, cells were filtered through a cell strainer (Miltenyi Biotech, #130-041-407), counted again and concentration was adjusted to 1.25 Mio/ml.
Cells were then seeded 80 μl/well to the 40 μl/well including dispensed compounds according to plate layout. By adding cells, compounds were further diluted 1:3, and resulting in 100 k cells/120 μl/well. After 24 hours 40 μl of supernatant was collected carefully from the top while not disturbing the cells and transferred into a round bottom 96 well plate. Collected and frozen supernatant was used for detection of IL2 using the IL-2 Human ProQuantum Immunoassay Kit (Invitrogen) or using the Human IL-2 ELISA Kit (Thermo Fisher).
Compounds were added in a 5 or 6 pt dose response with the Tecan D300e Digital Dispenser, all conditions 3 times more concentrated than the end-concentration, since cells are added afterwards (80 μl cells to 40 μl prepared medium with treatment). The DR was starting at 20 μM or 10 μM final top concentration and a dilution factor of 3.333. The positive control was the reference compound A1 that was added in a dose response as well, additionally to 3 wells of only 20 μM representing the positive stimulator control. All wells were normalized with DMSO to a final concentration of 0.6% (0.2% end-concentration).
The immunoassay is done following the manufacturer's manual (Invitrogen, #A35603). Additional information: For the immunoassay, MicroAmp™ EnduraPlate™ Optical 384-Well plates are used. Frozen supernatant is thawed and centrifuged for 5 minutes at 1000×g, both steps at 4° C. After centrifugation, required sample amount is taken from the top, and in a separate LightCycler V-bottom plate (working plate) diluted with assay dilution buffer, dilution factor depending on the PBS or CD3 condition but at least 1:3. IL-2 standard and blanks are prepared in the same V-bottom plate, standard with a range of […] (extended version). After preparation, 5 μl of sample dilutions or standard/blanks are transferred to the optical 384-well plate (assay plate) and the 10 μl reaction protocol is being followed. For measurement, the QuantStudio 12K Flex system is used. Raw data is extracted and IL-2 concentrations are calculated with the Thermo Fisher online app (apps.thermofisher.com/apps/proquantum).
ELISA is done following the manufacturer's manual (Thermo Fisher Scientific, #88-7025-88). Additional information: For the ELISA Nunc MaxiSorp 96 well plates are used. Frozen supernatant is thawed and centrifuged for 5 minutes at 1000×g, both steps at 4° C. […]

Row | Compound | EC50 [2] [nM] | EC50 [1] [nM] | Emax IL2 (% activation) [2] [% activation] | Emax proliferation (% activation) [1] [% activation]
1 | N[C@H]1CS(=O)(=O)c2cc(F)c(-c3cccc(C(F)(F)F)n3)cc2N(Cc2ccc(Cl)cc2)C1=O [Example 9, (3R)-3-amino-5-[(4-chlorophenyl)methyl]-8-fluoro-1,1-dioxo-7-[6-(trifluoromethyl)-2-pyridyl]-2,3-dihydro-1λ6,5-benzothiazepin-4-one] | – | 6690 | – | 76
2 | CC(C)Oc1cc(-c2cc3c(cc2F)S(=O)(=O)C[C@H](N)C(=O)N3Cc2ccc(Cl)cc2)cnn1 [Example 7, (3R)-3-amino-5-[(4-chlorophenyl)methyl]-8-fluoro-7-(6-isopropoxypyridazin-4-yl)-1,1-dioxo-2,3-dihydro-1λ6,5-benzothiazepin-4-one] | 3200 | 172 | 49 | –
3 | N[C@H]1CS(=O)(=O)c2cc(F)c(-c3cc(C(F)(F)F)ccn3)cc2N(Cc2ccc(Cl)cc2)C1=O [Example 8, (3R)-3-amino-5-[(4-chlorophenyl)methyl]-8-fluoro-1,1-dioxo-7-[4-(trifluoromethyl)-2-pyridyl]-2,3-dihydro-1λ6,5-benzothiazepin-4-one] | > 20000 | 1310 | 37 | 100
4 | CC(C)(C)c1ccnc(-c2cc3c(cc2F)S(=O)(=O)C[C@H](N)C(=O)N3Cc2ccc(Cl)cc2)c1 [Example 1, (3R)-3-amino-7-(4-tert-butyl-2-pyridyl)-5-[(4-chlorophenyl)methyl]-8-fluoro-1,1-dioxo-2,3-dihydro-1λ6,5-benzothiazepin-4-one] | 7380 | 1720 | 56 | –
5 | CC(C)(C)c1cnc(-c2cc3c(cc2F)S(=O)(=O)C[C@H](N)C(=O)N3Cc2ccc(Cl)cc2)nn1 [Example 12, (3R)-3-amino-7-(6-tert-butyl-1,2,4-triazin-3-yl)-5-[(4-chlorophenyl)methyl]-8-fluoro-1,1-dioxo-2,3-dihydro-1λ6,5-benzothiazepin-4-one] | 2780 | 1670 | 77 | –
6 | N[C@H]1CS(=O)(=O)c2cc(F)c(-c3cnnc(C4(C(F)(F)F)CC4)c3)cc2N(Cc2ccc(-c3noc(C(F)(F)F)n3)cc2)C1=O [Example 37, (3R)-3-amino-8-fluoro-1,1-dioxo-7-[6-[1-(trifluoromethyl)cyclopropyl]pyridazin-4-yl]-5-[[4-[5-(trifluoromethyl)-1,2,4-oxadiazol-3-yl]phenyl]methyl]-2,3-dihydro-1λ6,5-benzothiazepin-4-one] | – | 729 | – | 147

The remaining compounds from weak to strong by EC50 [2], led by results:

Row | EC50 [2] [nM] | Compound | EC50 [1] [nM] | Emax IL2 (% activation) [2] [% activation] | Emax proliferation (% activation) [1] [% activation]
7 | 2240 | CC(C)(C)c1cc(-c2cc3c(cc2F)S(=O)(=O)C[C@H](N)C(=O)N3Cc2ccc(Cl)cc2)ncn1 [Example 4, (3R)-3-amino-7-(6-tert-butylpyrimidin-4-yl)-5-[(4-chlorophenyl)methyl]-8-fluoro-1,1-dioxo-2,3-dihydro-1λ6,5-benzothiazepin-4-one] | 408 | 81 | –
8 | 1650 | CCN(CC)c1cnnc(-c2cc3c(cc2F)S(=O)(=O)C[C@H](N)C(=O)N3Cc2ccc(Cl)cc2)n1 [Example 15, (3R)-3-amino-5-[(4-chlorophenyl)methyl]-7-[5-(diethylamino)-1,2,4-triazin-3-yl]-8-fluoro-1,1-dioxo-2,3-dihydro-1λ6,5-benzothiazepin-4-one] | 1710 | 79 | –
9 | 1630 | CC(C)Oc1ccc(CN2C(=O)[C@@H](N)CS(=O)(=O)c3cc(F)c(-c4nncc(C(C)(C)C)n4)cc32)cc1 [Example 14, (3R)-3-amino-7-(5-tert-butyl-1,2,4-triazin-3-yl)-8-fluoro-5-[(4-isopropoxyphenyl)methyl]-1,1-dioxo-2,3-dihydro-1λ6,5-benzothiazepin-4-one] | 254 | 73 | –
10 | 1110 | Cc1ncc(-c2cc3c(cc2F)S(=O)(=O)C[C@H](N)C(=O)N3Cc2ccc(Cl)cc2)cc1C(C)(C)C [Example 16, (3R)-3-amino-7-(5-tert-butyl-6-methyl-3-pyridyl)-5-[(4-chlorophenyl)methyl]-8-fluoro-1,1-dioxo-2,3-dihydro-1λ6,5-benzothiazepin-4-one] | 36 | 87 | –
11 | 829 | CC(C)(C)c1cc(-c2cc3c(cc2F)S(=O)(=O)C[C@H](N)C(=O)N3Cc2ccc(Cl)cc2)ccn1 [Example 3, (3R)-3-amino-7-(2-tert-butyl-4-pyridyl)-5-[(4-chlorophenyl)methyl]-8-fluoro-1,1-dioxo-2,3-dihydro-1λ6,5-benzothiazepin-4-one] | 1510 | 56 | –
12 | 811 | CC(C)(C)c1cncc(-c2cc3c(cc2F)S(=O)(=O)C[C@H](N)C(=O)N3Cc2ccc(-c3noc(C(F)(F)F)n3)cc2)c1 [Example 22, (3R)-3-amino-7-(5-tert-butyl-3-pyridyl)-8-fluoro-1,1-diketo-5-[4-[5-(trifluoromethyl)-1,2,4-oxadiazol-3-yl]benzyl]-2,3-dihydro-1λ6,5-benzothiazepin-4-one] | 92 | 458 | 228

Source: patent US20250236617A1, “BICYCLIC TETRAHYDROTHIAZEPINE DERIVATIVES” (Hoffmann-La Roche Inc., priority 2022, published 2025)
